Assay results taken from PubChem BioAssay (NCI).
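Following 48 hours of exposure in 96-well plates, responses at five concentrations were used to interpolate endpoints linearly. Abbreviation: GI50, concentration required for 50% inhibition of growth. TGI denotes the concentration required for complete inhibition of growth.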

Legend:
Assay in all cases: inhibition of tumour cell growth, NCI panel, 48 h; in the data active = GI50 below about 0.43 µM; inactive = the rest
NCI-H522 lung = tested on: NCI-H522 lung
ACHN renal = tested on: ACHN renal
NCI/ADR-RES ovarian = tested on: NCI/ADR-RES ovarian
SF-539 CNS = tested on: SF-539 CNS
HT29 colon = tested on: HT29 colon
HCT-15 colon = tested on: HCT-15 colon
M14 melanoma = tested on: M14 melanoma
IGROV1 ovarian = tested on: IGROV1 ovarian
PC-3 prostate = tested on: PC-3 prostate
TK-10 renal = tested on: TK-10 renal
CAKI-1 renal = tested on: CAKI-1 renal
SK-MEL-28 melanoma = tested on: SK-MEL-28 melanoma
OVCAR-3 ovarian = tested on: OVCAR-3 ovarian
U251 CNS = tested on: U251 CNS
BT-549 breast = tested on: BT-549 breast
NCI-H226 lung = tested on: NCI-H226 lung
OVCAR-5 ovarian = tested on: OVCAR-5 ovarian
MCF7 breast = tested on: MCF7 breast
HS 578T breast = tested on: HS 578T breast
SW-620 colon = tested on: SW-620 colon
COLO 205 colon = tested on: COLO 205 colon
SF-295 CNS = tested on: SF-295 CNS
HCC-2998 colon = tested on: HCC-2998 colon
CCRF-CEM leukemia = tested on: CCRF-CEM leukemia
SK-MEL-2 melanoma = tested on: SK-MEL-2 melanoma
RXF 393 renal = tested on: RXF 393 renal
LOX IMVI melanoma = tested on: LOX IMVI melanoma
HOP-62 NSCLC = tested on: HOP-62 NSCLC
SK-OV-3 ovarian = tested on: SK-OV-3 ovarian
SN12C renal = tested on: SN12C renal
SNB-19 CNS = tested on: SNB-19 CNS
K-562 leukemia = tested on: K-562 leukemia
MDA-MB-435 = tested on: MDA-MB-435
MOLT-4 leukemia = tested on: MOLT-4 leukemia
SF-268 CNS = tested on: SF-268 CNS
RPMI-8226 leukemia = tested on: RPMI-8226 leukemia
SNB-75 CNS = tested on: SNB-75 CNS
SK-MEL-5 melanoma = tested on: SK-MEL-5 melanoma
OVCAR-8 ovarian = tested on: OVCAR-8 ovarian
NCI-H460 lung = tested on: NCI-H460 lung
NCI-H23 lung = tested on: NCI-H23 lung
HCT-116 colon = tested on: HCT-116 colon
T-47D breast = tested on: T-47D breast
OVCAR-4 ovarian = tested on: OVCAR-4 ovarian
DU-145 prostate = tested on: DU-145 prostate
UACC-257 melanoma = tested on: UACC-257 melanoma
A549 NSCLC = tested on: A549 NSCLC
KM12 colon = tested on: KM12 colon
MDA-MB-231 breast = tested on: MDA-MB-231 breast
SR leukemia = tested on: SR leukemia
A498 renal = tested on: A498 renal
UACC-62 melanoma = tested on: UACC-62 melanoma

Nc1ncc(-c2ccc3ncnc(N4CCc5ccc(Cl)cc54)c3c2)cn1
30 µM: TGI (T-47D breast)
23.5 µM: TGI (LOX IMVI melanoma)
2.34 µM: TGI (IGROV1 ovarian)
87.2 µM: TGI (HCC-2998 colon)
0.8 µM: TGI (A498 renal)
8.51 µM: TGI (BT-549 breast)
97.6 µM: TGI (KM12 colon)
18.1 µM: TGI (SR leukemia)
24.8 µM: TGI (OVCAR-4 ovarian)
> 100 µM: TGI (ACHN renal) | TGI (NCI/ADR-RES ovarian) | TGI (HCT-15 colon) | TGI (M14 melanoma) | TGI (PC-3 prostate) | TGI (CAKI-1 renal) | TGI (SK-MEL-28 melanoma) | TGI (OVCAR-3 ovarian) | TGI (U251 CNS) | TGI (OVCAR-5 ovarian) | TGI (SW-620 colon) | TGI (CCRF-CEM leukemia) | TGI (HOP-62 NSCLC) | TGI (SN12C renal) | TGI (SNB-19 CNS) | TGI (K-562 leukemia) | TGI (MDA-MB-435) | TGI (SF-268 CNS) | TGI (OVCAR-8 ovarian) | TGI (NCI-H460 lung) | TGI (NCI-H23 lung) | TGI (DU-145 prostate) | TGI (UACC-257 melanoma) | TGI (A549 NSCLC) | TGI (MDA-MB-231 breast)
active: GI50 (IGROV1 ovarian) 0.291 µM | GI50 (TK-10 renal) 0.354 µM | GI50 (SNB-75 CNS) 0.418 µM | GI50 (T-47D breast) 0.313 µM | GI50 (A498 renal) 0.248 µM
5.98 µM: TGI (UACC-62 melanoma)
27.4 µM: TGI (NCI-H226 lung)
4.44 µM: TGI (RPMI-8226 leukemia)
15.8 µM: TGI (NCI-H522 lung)
4.39 µM: TGI (HS 578T breast)
9.53 µM: TGI (COLO 205 colon)
6.89 µM: TGI (SF-295 CNS)
10.8 µM: TGI (HCT-116 colon)
4.94 µM: TGI (SK-MEL-5 melanoma)
3.79 µM: TGI (SF-539 CNS)
82.6 µM: TGI (HT29 colon)
3.81 µM: TGI (MOLT-4 leukemia)
4.53 µM: TGI (SK-MEL-2 melanoma)
7.03 µM: TGI (SK-OV-3 ovarian)
3.98 µM: TGI (SNB-75 CNS)
31.7 µM: TGI (MCF7 breast)
inactive: GI50 (NCI-H522 lung) 2.66 µM | GI50 (ACHN renal) 0.584 µM | GI50 (NCI/ADR-RES ovarian) 1.86 µM | GI50 (SF-539 CNS) 1.11 µM | GI50 (HT29 colon) 1.06 µM | GI50 (HCT-15 colon) 1.33 µM | GI50 (M14 melanoma) 1.88 µM | GI50 (PC-3 prostate) 0.739 µM | GI50 (CAKI-1 renal) 1.19 µM | GI50 (SK-MEL-28 melanoma) 2.01 µM | GI50 (OVCAR-3 ovarian) 1.88 µM | GI50 (U251 CNS) 2.46 µM | GI50 (BT-549 breast) 0.603 µM | GI50 (NCI-H226 lung) 1.35 µM | GI50 (OVCAR-5 ovarian) 0.532 µM | GI50 (MCF7 breast) 0.684 µM | GI50 (HS 578T breast) 0.437 µM | GI50 (SW-620 colon) 2.83 µM | GI50 (COLO 205 colon) 2.01 µM | GI50 (SF-295 CNS) 1.03 µM | GI50 (HCC-2998 colon) 1.5 µM | GI50 (CCRF-CEM leukemia) 1.02 µM | GI50 (SK-MEL-2 melanoma) 1.56 µM | GI50 (RXF 393 renal) 0.606 µM | GI50 (LOX IMVI melanoma) 0.87 µM | GI50 (HOP-62 NSCLC) 0.743 µM | GI50 (SK-OV-3 ovarian) 1.37 µM | GI50 (SN12C renal) 0.813 µM | GI50 (SNB-19 CNS) 2.55 µM | GI50 (K-562 leukemia) 2.22 µM | GI50 (MDA-MB-435) 2.19 µM | GI50 (MOLT-4 leukemia) 0.563 µM | GI50 (SF-268 CNS) 1.63 µM | GI50 (RPMI-8226 leukemia) 0.584 µM | GI50 (SK-MEL-5 melanoma) 1.46 µM | GI50 (OVCAR-8 ovarian) 1.84 µM | GI50 (NCI-H460 lung) 1.46 µM | GI50 (NCI-H23 lung) 1.9 µM | GI50 (HCT-116 colon) 1.68 µM | GI50 (OVCAR-4 ovarian) 1.61 µM | GI50 (DU-145 prostate) 0.971 µM | GI50 (UACC-257 melanoma) 2.98 µM | GI50 (A549 NSCLC) 1.26 µM | GI50 (KM12 colon) 2.34 µM | GI50 (MDA-MB-231 breast) 0.994 µM | GI50 (SR leukemia) 1.04 µM | GI50 (UACC-62 melanoma) 1.31 µM
3.85 µM: TGI (TK-10 renal)
3 µM: TGI (RXF 393 renal)
